The source made the active and inactive calls.
Legend:
[1] = inhibitors of Vif binding to APOBEC3G peptide, primary screen, biochemical, TR-FRET, GST-Vif 1-94, biotin-A3G peptide, dose response retest (AID 1117319); type: functional;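 further: TR-FRET signal of purified GST-Vif binding a biotinylated A3G peptide; inhibitors lower the FRET signal by blocking Vif and A3G binding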
Protein Tat = target: T1, Protein Tat (Human immunodeficiency virus type 1 group M subtype B (isolate HXB2)(HIV-1), UniProt P04608); type: functional;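 further: tat binding to TAR RNA read out by fluorescence polarization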
T1 sequence (P04608 whole entry): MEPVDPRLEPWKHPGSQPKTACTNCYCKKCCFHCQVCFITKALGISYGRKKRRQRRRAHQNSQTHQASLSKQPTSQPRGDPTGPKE

Genome polyprotein = Genome polyprotein (dengue virus type 2, UniProt P29990); assay: Dengue-2 NS5 methyltransferase inhibitors, primary screen, biochemical, confirmation dose response (AID 588689); type: functional
Chain of Genome polyprotein (P29990 2492-3391 limits assumed): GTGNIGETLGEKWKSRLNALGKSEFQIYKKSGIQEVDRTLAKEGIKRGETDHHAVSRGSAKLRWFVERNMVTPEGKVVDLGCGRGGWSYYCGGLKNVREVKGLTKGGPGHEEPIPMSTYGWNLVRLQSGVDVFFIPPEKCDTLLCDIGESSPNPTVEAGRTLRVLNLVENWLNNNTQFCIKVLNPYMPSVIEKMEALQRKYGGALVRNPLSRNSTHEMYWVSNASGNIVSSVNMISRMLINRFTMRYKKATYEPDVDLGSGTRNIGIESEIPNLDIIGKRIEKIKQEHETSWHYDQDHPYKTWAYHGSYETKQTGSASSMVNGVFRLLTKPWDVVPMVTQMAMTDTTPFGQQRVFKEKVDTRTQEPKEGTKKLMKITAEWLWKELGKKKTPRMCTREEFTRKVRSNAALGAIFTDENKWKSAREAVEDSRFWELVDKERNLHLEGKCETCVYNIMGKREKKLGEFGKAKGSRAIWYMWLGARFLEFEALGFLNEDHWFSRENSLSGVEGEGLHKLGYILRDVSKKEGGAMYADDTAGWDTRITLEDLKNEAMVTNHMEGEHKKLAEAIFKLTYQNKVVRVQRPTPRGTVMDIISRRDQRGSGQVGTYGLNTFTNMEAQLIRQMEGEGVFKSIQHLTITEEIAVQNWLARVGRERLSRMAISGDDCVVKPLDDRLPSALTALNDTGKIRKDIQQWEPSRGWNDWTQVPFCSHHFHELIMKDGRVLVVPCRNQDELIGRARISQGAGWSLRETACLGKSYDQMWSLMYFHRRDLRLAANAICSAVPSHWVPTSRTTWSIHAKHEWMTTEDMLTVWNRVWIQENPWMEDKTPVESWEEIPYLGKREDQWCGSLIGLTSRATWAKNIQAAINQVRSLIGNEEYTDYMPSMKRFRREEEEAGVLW

Caspase-6 = Caspase-6 (Homo sapiens, UniProt P55212); assay: human caspase-6 inhibitors, dose response, biochemical, VEID-R110 fluorescence, cherry-pick (AID 720632)
Chain of Caspase-6 (P55212 24-179 limits assumed): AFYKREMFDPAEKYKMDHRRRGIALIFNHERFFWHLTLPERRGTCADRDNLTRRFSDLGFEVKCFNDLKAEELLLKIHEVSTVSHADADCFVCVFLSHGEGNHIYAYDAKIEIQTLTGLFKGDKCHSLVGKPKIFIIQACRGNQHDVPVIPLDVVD
Chain of Caspase-6 (P55212 194-293 limits assumed): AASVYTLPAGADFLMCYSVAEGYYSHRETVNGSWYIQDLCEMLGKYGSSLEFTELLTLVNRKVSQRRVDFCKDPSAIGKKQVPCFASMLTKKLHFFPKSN

[2] = target: NAD-dependent protein deacylase sirtuin-5, mitochondrial (Homo sapiens, UniProt Q9NXA8); assay: SIRT5 desuccinylase inhibitors, dose response, biochemical, fluorescence imaging, cherry-pick, set 5 (AID 720591);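 further: desuccinylation of succinyl peptide AMC substrate read as fluorescence after trypsin release; potency of inhibitors that lower fluorescence and may act on trypsin instead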
Chain of NAD-dependent protein deacylase sirtuin-5, mitochondrial (Q9NXA8 whole entry): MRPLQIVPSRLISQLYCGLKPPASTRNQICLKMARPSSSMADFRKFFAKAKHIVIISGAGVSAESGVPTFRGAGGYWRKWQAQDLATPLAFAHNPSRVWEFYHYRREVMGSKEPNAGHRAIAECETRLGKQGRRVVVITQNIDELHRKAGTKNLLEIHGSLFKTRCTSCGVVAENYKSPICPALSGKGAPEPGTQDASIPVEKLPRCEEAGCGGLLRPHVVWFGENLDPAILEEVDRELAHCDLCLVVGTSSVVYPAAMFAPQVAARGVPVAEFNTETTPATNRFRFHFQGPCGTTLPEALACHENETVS

[3] = Luminescence-based cell-based high throughput dose response assay to identify activators of the DAF-12 from the parasite S. stercoralis (ssDAF-12).; type: functional
[4] = target: T2, Oxysterols receptor LXR-beta (Homo sapiens, UniProt P55055); assay: LXR agonists, Gal4 luciferase reporter, dose response, counter-screen for ssDAF-12 agonist project, cell-based, luminescence, HEK293, S. stercoralis campaign (AID 720737); type: functional; conditions: read-out: IC50 (the source's name)
T2 sequence (P55055 whole entry): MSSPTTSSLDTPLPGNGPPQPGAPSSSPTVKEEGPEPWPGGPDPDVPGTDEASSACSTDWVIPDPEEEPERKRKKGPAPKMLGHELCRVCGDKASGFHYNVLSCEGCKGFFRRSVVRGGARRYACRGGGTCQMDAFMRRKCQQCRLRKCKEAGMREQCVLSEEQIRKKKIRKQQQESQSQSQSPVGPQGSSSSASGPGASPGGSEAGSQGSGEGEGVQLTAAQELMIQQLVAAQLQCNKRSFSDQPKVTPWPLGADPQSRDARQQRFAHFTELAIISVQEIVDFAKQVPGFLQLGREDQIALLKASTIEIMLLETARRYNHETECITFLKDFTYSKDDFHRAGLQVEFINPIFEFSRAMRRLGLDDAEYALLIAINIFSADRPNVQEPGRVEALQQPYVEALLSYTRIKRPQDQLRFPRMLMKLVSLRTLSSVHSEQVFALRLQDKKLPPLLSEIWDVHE

cells [5] = conditions: HEK293
[6] = HepG2 cell cytotoxicity, dose response, cytotoxicity control, plate reader, cherry-pick, antagonist series (AID 743416); type: functional, cell-based
[7] = HEK293 cell cytotoxicity, dose response, cytotoxicity control, plate reader, cherry-picked samples (AID 743446); type: functional, cell-based
[8] = MC4R antagonists, dose response, counter-screen for LGR2 antagonist project, cell-based, plate reader, cherry pick (AID 743444); type: functional;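 further: transfected HEK 293 cells stimulated with alpha-MSH peptide; potency of inhibitors of the alpha-MSH evoked signal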
[9] = LGR2 antagonists, dose response, cell-based, HEK293, CRE-luciferase reporter, cherry pick, set 2 (AID 743343); type: functional;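 further: transfected cells were stimulated with diluted bursicon conditioned medium after compound addition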
[10] = Jurkat T cell cytotoxicity, dose response, cytotoxicity control for P. falciparum gametocyte viability project, luminescence (AID 1117277); type: functional, cell-based;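 further: potency reflects loss of cellular ATP meaning fewer viable cells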
[11] = P. falciparum late gametocyte killing, dose response, luminescence (AID 1117278); type: functional, cell-based;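 further: gametocytes exposed to compound for 24 hours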
cells [12] = assay: cells
[13] = target: 5-hydroxytryptamine receptor 2A (Mus musculus, UniProt P35363); type: functional, cell-based;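 further: CHO-K1 cells with tagged receptor and beta-arrestin; agonist potency measured as compound-induced activation of the receptor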
Chain of 5-hydroxytryptamine receptor 2A (P35363 whole entry): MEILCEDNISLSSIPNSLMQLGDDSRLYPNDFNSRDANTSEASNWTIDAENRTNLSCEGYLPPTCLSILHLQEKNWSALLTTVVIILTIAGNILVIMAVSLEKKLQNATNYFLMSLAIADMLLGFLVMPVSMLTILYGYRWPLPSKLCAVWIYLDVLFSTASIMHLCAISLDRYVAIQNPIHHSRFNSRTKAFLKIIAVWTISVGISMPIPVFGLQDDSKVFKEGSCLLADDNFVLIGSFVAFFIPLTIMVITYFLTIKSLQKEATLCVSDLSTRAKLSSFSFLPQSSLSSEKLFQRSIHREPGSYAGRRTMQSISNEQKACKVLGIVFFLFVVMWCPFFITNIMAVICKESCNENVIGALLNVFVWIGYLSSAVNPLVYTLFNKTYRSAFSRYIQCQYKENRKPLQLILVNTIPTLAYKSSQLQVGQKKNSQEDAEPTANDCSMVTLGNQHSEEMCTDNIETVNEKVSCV

Mu-type opioid receptor = Mu-type opioid receptor (Homo sapiens, UniProt P35372); type: functional, cell-based;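 further: U2OS cells with beta-arrestin recruitment to OPRM1 by beta-gal complementation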
Chain of Mu-type opioid receptor (P35372 whole entry): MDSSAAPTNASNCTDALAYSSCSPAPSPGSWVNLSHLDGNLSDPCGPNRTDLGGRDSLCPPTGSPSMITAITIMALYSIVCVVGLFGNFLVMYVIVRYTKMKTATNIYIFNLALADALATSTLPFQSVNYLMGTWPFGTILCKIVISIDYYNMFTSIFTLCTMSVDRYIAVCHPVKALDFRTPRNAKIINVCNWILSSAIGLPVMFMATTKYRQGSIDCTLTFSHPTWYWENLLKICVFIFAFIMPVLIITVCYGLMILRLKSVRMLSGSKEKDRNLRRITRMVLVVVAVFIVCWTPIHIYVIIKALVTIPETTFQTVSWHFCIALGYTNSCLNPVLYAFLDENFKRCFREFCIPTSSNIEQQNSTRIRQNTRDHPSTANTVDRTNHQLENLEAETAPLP

Albumin = Albumin (Bos taurus, UniProt P02769); assay: Counterscreen for inhibitors of T-cell receptor (TCR)-CD3 interaction: Fluorescence-based biochemical high throughput dose response assay to identify inhibitors of T-cell receptor (TCR)-CD3 interaction using a TAMRA-labeled BSA probe.; type: functional
Chain of Albumin (P02769 whole entry): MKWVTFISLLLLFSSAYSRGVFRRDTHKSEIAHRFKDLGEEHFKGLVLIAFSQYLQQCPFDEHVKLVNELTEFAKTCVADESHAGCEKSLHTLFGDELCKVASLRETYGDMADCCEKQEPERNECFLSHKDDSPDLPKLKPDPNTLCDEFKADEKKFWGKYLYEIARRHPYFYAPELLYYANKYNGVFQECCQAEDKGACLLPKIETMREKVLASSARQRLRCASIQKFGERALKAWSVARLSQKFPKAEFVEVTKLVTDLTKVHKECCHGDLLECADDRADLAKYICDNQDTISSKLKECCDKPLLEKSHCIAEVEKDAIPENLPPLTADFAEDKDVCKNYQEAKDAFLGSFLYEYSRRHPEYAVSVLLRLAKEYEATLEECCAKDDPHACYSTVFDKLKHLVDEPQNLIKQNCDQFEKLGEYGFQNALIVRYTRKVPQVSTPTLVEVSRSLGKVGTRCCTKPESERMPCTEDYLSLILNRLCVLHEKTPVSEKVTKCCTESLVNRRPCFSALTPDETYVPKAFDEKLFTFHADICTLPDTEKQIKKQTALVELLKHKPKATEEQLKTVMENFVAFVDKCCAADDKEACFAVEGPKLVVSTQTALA

[14] = target: 1-phosphatidylinositol 4,5-bisphosphate phosphodiesterase beta-3 (Homo sapiens, UniProt Q01970); assay: Fluorescence-based biochemical high throughput dose response assay to identify inhibitors of phospholipase C isozymes (PLC-B3).
[15] = target: Induced myeloid leukemia cell differentiation protein Mcl-1 (Homo sapiens, UniProt Q07820); type: functional
[16] = target: 1-phosphatidylinositol 4,5-bisphosphate phosphodiesterase gamma-1 (Homo sapiens, UniProt P19174); assay: Counterscreen for inhibitors of phospholipase C isozymes (PLC-B3): Fluorescence-based biochemical high throughput dose response assay to identify inhibitors of phospholipase C isozymes (PLC-gamma1).
[17] = nonselective inhibitors of cellular cAMP signaling, dose response, counter-screen for MC4R biased antagonist project, cell-based, TR-FRET cAMP detection (AID 602305); type: functional;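 further: U2OS cells stimulated with forskolin near its EC80 as the cAMP inducer; potency is for inhibition of forskolin-stimulated cAMP signaling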
[18] = A549 cell cytotoxicity, dose response, cytotoxicity control, plate reader, cherry-pick, antagonist series (AID 743412); type: functional, cell-based
Melanocortin receptor 4 = Melanocortin receptor 4 (Homo sapiens, UniProt P32245); assay: MC4R antagonist potency on cAMP, dose response, cell-based, TR-FRET, biased antagonists (AID 602298); type: functional;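 further: antagonist potency against agonist-stimulated cAMP production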
Chain of Melanocortin receptor 4 (P32245 whole entry): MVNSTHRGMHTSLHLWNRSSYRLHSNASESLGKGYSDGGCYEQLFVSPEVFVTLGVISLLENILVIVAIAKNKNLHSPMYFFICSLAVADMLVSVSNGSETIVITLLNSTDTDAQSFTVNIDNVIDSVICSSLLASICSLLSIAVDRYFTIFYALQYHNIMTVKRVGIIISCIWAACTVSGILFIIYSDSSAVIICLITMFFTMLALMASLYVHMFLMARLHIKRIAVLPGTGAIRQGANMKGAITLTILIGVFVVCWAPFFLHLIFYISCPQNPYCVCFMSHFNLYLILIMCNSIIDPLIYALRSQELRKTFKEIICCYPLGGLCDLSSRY

[19] = NIH:OVCAR-3 ovarian cancer cell cytotoxicity, dose response, PAX8 inhibitor project, plate reader, dry powder samples (AID 743044); type: functional, cell-based
Paired box protein Pax-8 = Paired box protein Pax-8 (Homo sapiens, UniProt Q06710); assay: inhibitors of PAX8-driven TPO luciferase reporter, dose response, RMG-I cells, cherry-pick (AID 687027); type: functional, cell-based;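 further: luciferase reporter driven by Pax8 target thyroperoxidase promoter measured by SteadyGlo luminescence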
Chain of Paired box protein Pax-8 (Q06710 whole entry): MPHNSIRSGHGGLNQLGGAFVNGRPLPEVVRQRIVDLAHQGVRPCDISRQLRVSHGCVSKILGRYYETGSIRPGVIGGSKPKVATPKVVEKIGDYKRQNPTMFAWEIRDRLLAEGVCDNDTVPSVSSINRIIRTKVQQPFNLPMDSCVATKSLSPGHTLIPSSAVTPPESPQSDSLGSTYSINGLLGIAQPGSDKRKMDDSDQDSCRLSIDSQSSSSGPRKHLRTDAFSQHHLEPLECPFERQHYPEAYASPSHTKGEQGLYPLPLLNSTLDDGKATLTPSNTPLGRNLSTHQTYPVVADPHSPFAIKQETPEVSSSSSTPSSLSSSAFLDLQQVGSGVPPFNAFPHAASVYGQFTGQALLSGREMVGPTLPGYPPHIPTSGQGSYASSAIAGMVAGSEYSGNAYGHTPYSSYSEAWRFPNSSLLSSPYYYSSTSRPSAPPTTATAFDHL

[20] = A2780 ovarian cancer cell cytotoxicity, dose response, cytotoxicity control, plate reader, dry powder samples (AID 743046); type: functional, cell-based
[21] = IGROV1 ovarian cancer cell cytotoxicity, dose response, PAX8 inhibitor project, plate reader, dry powder samples (AID 743043); type: functional, cell-based; conditions: IGROV-1
[22] = non-specific cell cytotoxicity, dose response, cytotoxicity control for PAX8 inhibitor project, plate reader, dry powder samples (AID 743021); type: functional, cell-based
[23] = cytotoxicity in OVCAR8 ovarian cancer cells, dose response, PAX8 project, cell-based, plate reader, dry powder samples (AID 743197); type: functional; conditions: OVCAR-8
[24] = IOSE-T80 ovarian epithelial cell cytotoxicity, dose response, cytotoxicity control for PAX8 inhibitor project, plate reader, dry powder samples (AID 743045); type: functional, cell-based
[25] = target: Metabotropic glutamate receptor 5 (Rattus norvegicus, UniProt P31424); assay: Identification of a glycine sulfonamide based non-MPEP site positive allosteric potentiator (PAM) of mGlu5 (calcium_assay).; type: functional
Chain of Metabotropic glutamate receptor 5 (P31424 whole entry): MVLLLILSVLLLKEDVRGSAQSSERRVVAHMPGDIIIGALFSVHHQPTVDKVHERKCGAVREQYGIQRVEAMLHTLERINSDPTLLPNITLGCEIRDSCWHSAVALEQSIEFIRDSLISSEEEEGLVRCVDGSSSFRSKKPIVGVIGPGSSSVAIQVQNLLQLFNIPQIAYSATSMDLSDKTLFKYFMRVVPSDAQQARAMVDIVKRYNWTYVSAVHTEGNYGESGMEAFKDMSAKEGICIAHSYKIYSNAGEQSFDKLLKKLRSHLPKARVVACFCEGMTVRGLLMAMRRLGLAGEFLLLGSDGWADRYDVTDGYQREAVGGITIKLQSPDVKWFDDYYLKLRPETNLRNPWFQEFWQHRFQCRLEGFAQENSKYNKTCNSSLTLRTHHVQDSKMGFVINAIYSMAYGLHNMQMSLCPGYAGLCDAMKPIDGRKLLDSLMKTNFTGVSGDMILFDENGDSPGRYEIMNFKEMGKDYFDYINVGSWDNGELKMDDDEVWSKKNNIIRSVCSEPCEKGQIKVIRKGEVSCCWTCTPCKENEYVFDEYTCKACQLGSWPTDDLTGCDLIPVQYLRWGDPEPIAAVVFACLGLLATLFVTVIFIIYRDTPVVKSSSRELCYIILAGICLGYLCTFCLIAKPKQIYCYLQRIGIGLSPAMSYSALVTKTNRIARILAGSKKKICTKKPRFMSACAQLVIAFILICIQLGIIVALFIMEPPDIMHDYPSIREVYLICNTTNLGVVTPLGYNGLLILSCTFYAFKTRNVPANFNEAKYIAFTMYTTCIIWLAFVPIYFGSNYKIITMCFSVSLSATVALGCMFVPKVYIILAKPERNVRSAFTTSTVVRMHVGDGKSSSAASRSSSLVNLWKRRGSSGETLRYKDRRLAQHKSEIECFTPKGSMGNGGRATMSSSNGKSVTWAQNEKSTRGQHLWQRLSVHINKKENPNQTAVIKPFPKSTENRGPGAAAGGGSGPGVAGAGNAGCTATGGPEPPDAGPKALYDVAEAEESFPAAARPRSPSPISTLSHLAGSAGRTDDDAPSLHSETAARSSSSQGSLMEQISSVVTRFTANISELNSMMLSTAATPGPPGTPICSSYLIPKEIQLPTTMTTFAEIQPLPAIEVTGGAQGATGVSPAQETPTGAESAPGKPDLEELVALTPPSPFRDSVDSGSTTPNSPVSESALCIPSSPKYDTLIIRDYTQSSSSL

[26] = cytotoxicity dependent on PAX8, dose response, cell-based, plate reader, dry powder (AID 743049); type: functional
[27] = cytotoxicity in OV-90 ovarian cancer cells, dose response, PAX8 inhibitor project, cell-based, plate reader, dry powder, SA8 (AID 743149); type: functional
[28] = PAX2 cell-based inhibition, dose response, selectivity assay for PAX8 inhibitor project, plate reader, dry powder samples (AID 743048); type: functional;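 further: HEK293 cells carrying a WT1 promoter luciferase reporter driven by expressed Pax2; potency is for inhibition of Pax2 driven reporter signal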
[29] = cytotoxicity in COV434 cells, dose response, cytotoxicity control for PAX8 inhibitor project, cell-based, plate reader, dry powder, SA7 (AID 743145); type: functional
[30] = PAX5 activity inhibitors, dose response, selectivity assay for PAX8 inhibitor project, cell-based, plate reader, dry powder samples (AID 743047); type: functional;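 further: HEK293 cells carrying a Pax5 driven CD19 promoter luciferase reporter; potency of inhibitors that lower reporter luminescence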
[31] = HepG2 cell cytotoxicity, dose response, cytotoxicity control, cherry-picked samples (AID 1159577); type: functional, cell-based
[32] = P. falciparum ATP4 D1247Y mutant growth inhibitors, dose response, NITD609-resistant line, SYBR Green, dry powder (AID 1159571); type: functional, cell-based;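 further: parasites synchronized at ring stage by sorbitol before testing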
[33] = HepG2 cell cytotoxicity, dose response, cytotoxicity control, plate reader, dry powder samples (AID 1159569); type: functional, cell-based;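 further: inhibitor potency with signal falling toward the positive control level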
[34] = P. falciparum Dd2 growth inhibitors, dose response, SYBR Green, cherry-picked samples (AID 1159567); type: functional, cell-based
[35] = P. falciparum Dd2 growth inhibitors, dose response, SYBR Green, dry powder samples (AID 1159566); type: functional, cell-based;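 further: potency for growth inhibition with lower SYBR green DNA signal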
[36] = P. falciparum 3D7-ScDHODH growth inhibitors, dose response, SYBR Green, dry powder samples (AID 1159570); type: functional, cell-based;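 further: parasite growth measured after 72 hours of compound exposure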

For `CCOc1ccc(-n2c(Cc3cc(O)nc(O)n3)nnc2SCC(N)=O)cc1`, the IC50 [1] was > 100 µM (active) and the IC50 (Protein Tat) was > 100 µM (active).

With `O=C(O)c1cccc(N2C(=O)c3cc([N+](=O)[O-])cc4cc([N+](=O)[O-])cc(c34)C2=O)c1` the IC50 (Genome polyprotein) was 26.7 µM (active) and the AC50 (Caspase-6) was 8.47 µM (active).

For `Cc1ccc(-n2c(Cc3cccn3C)nnc2SCC(=O)Nc2nnc(C)s2)cc1`, the IC50 [1] was > 100 µM (active).

With `COc1ccc(N(C(C)=O)c2nc3ccccc3[nH]2)cc1` the AC50 [2] was > 30 µM (inactive).

With `COc1ccc(NC(=O)c2cc3ccccc3cc2OC)cc1` the IC50 [3] was > 67.5 µM (inactive) and the EC50 [4] was > 67.5 µM (inactive).

With `COC(=O)C1=CN(C)C=C(C(=O)OC)C1c1ccccc1Cl` the AC50 (cells [5]) was > 52 µM (inactive).

In the case of `Cc1ccc(-c2nnc(Nc3ccccc3)o2)cc1`, the AC50 [6] is reported as > 52 µM (inactive), the AC50 [7] is reported as > 52 µM (inactive) and the AC50 [8] is reported as 25.6 µM (active). For the same compound, the AC50 [9] was 18.6 µM (active).

With `CC(C)CNC(=O)c1cccc(NC(=O)COc2ccc([N+](=O)[O-])cc2)c1` the IC50 [10] was > 83.3 µM (inactive) and the IC50 [11] was > 109 µM (inactive).

With `CN1CCc2c(sc(NC(=O)Cc3ccccc3)c2C#N)C1` the AC50 (cells [12]) was 66.1 µM (active), the EC50 [13] was 48.2 µM (inactive) and the EC50 (Mu-type opioid receptor) was 92.5 µM (inactive).

With `O=C1/C(=C/c2ccco2)SC(=S)N1c1cccnc1` the IC50 (Albumin) was > 94.1 µM (inactive), the IC50 [14] was > 122 µM (inactive) and the IC50 [15] was 3.16 µM (not active). The IC50 [16] was > 122 µM (inactive).

In the case of `COc1ccc(CN2Cc3cnnn3-c3ccccc3C2C#N)cc1` (configuration not stated), the AC50 [6] is reported as > 52 µM (inactive), the IC50 [17] is reported as > 64.7 µM (inactive) and the AC50 [7] is reported as 12.7 µM (active). For the same compound, the AC50 [8] was 25.8 µM (active), the AC50 [18] was 20.6 µM (active) and the IC50 (Melanocortin receptor 4) was 26.3 µM (inactive). For the same compound, the AC50 [9] was 27.1 µM (active).

For `C[C@H](CO)N1C[C@H](C)[C@@H](CN(C)S(=O)(=O)c2ccc(F)cc2)OCCCC[C@H](C)Oc2ccc(NS(=O)(=O)c3ccc(Cl)cc3)cc2C1=O`, the AC50 [19] was 11.9 µM (active), the AC50 (Paired box protein Pax-8) was 4.97 µM (active) and the AC50 [20] was 23.3 µM (active). For the same compound, the AC50 [21] was 35.1 µM (active), the AC50 [22] was 49.2 µM (active) and the AC50 [23] was 14.9 µM (active). The AC50 [24] was 13.1 µM (active).

Work on `CS(=O)(=O)N(CC(=O)Nc1ccc(F)nc1)c1ccccc1Cl` yielded an EC50 [25] of 4.4 µM.

For `CS(=O)(=O)N1c2ccccc2CCC1C(=O)Nc1ccncc1` (configuration not stated), the EC50 [25] was 10 µM (inconclusive).

With `COc1ccccc1C#Cc1ccc([C@H]2[C@@H](CO)N(C(=O)C3CCCC3)[C@H]2C#N)cc1` the AC50 [19] was 48.3 µM (active), the AC50 [26] was 40.7 µM (active) and the AC50 [21] was 37.4 µM (active). The AC50 [27] was > 70 µM (inactive), the AC50 [28] was 27.6 µM (active) and the AC50 [29] was > 70 µM (inactive). For the same compound, the AC50 [30] was 23 µM (active).

For `C[C@@H]1CN([C@@H](C)CO)C(=O)Cc2cc(NC(=O)Nc3ccc4c(c3)OCO4)ccc2O[C@H]1CN(C)Cc1ccc2c(c1)OCO2`, the AC50 [31] was > 39 µM (inactive).

With `C[C@@H]1CN([C@@H](C)CO)C(=O)c2c(c3ccccc3n2C)-c2ccccc2CO[C@@H]1CN(C)C(=O)Nc1ccc(-c2ccccc2)cc1` the AC50 [32] was 1.46 µM (active), the AC50 [33] was > 100 µM (inactive) and the AC50 [34] was 1.93 µM (active). For the same compound, the AC50 [35] was 1.48 µM (active), the AC50 [36] was 2.36 µM (active) and the AC50 [31] was > 42 µM (inactive).
